The record followed here is patent US8987195B2 (priority 2012, dated 2015).

The assay concerns the target HCV NS3/4A protease genotype 1b (Hepatitis C virus genotype 1b, UniProt P26663). Briefly: HCV NS3/4A protease time-resolved fluorescence (TRF) assay, Ki against genotype 1b. Particulars: IC50 [gt-1b] (nM), NS3/4A genotype 1b, enzyme 0.2 nM. Format: biochemical. As to the method:
Measuring NS3/4A Inhibitory Activity (Ki) Against Genotype 1b, Against A156T Mutants and Against Genotype 3a
One assay for measuring inhibitory activity is HCV NS3 protease time-resolved fluorescence (TRF) assay as described below and in Mao et al., Anal. Biochem. 373:1-8, 2008 and International Patent Application Publication WO 2006/102087. A NS3 protease assay can be performed, for example, in a final volume of 20 μl assay buffer containing 50 mM HEPES, pH 7.5, 150 mM NaCl, 15% glycerol, 0.15% TRITON X-100, 10 mM DTT, and 0.1% PEG 8000. NS3 and NS4A protease is pre-incubated with various concentrations of inhibitors in DMSO for 30 min. The reaction is initiated by adding the TRF peptide substrate (final concentration 25 nM). NS3 mediated hydrolysis of the substrate was run for 2.5 hours at room temperature. Product fluorescence is detected using A Pherastar Plus plate reader (BMG) or Envision (Perkin Elmer Life and Analytical Sciences with excitation at 340 nm and emission at 615 nm using the appropriate delay time optimized for the europium fluorescence probe. Testing concentrations of different enzyme forms are selected to result in a signal to background ratio (S/B) of 10-30. IC50 values are derived using a standard four-parameter fit to the data. Ki values are derived from IC50 values using the following formula, IC50=Ki(1+[S]/KM), Eqn (1), where [S] is the concentration of substrate peptide in the reaction and KM is the Michaelis constant. See P. Gallinari et al., 38 BIOCHEM. 5620-32 (1999); P. Gallinari et al., 72 J. VIROL. 6758-69 (1998); M. Taliani et al., 240 ANAL. BIOCHEM. 60-67 (1996); Mao et al., Analytical Biochemistry 373: 1-8, 2008.
The assay described above was run against genotype 1b at a concentration of 0.2 nM, against A156T mutant strains at a concentration of 0.4 nM, and against genotype 3a at a concentration of 0.025 nM.

What is called IC50 is the concentration that inhibits the measured activity by half. In turn, `COc1ccc2nc(C(F)(F)F)c3c(c2c1)OC[C@]1(C[C@H]2C(=O)N[C@]4(C(=O)NS(=O)(=O)C5(C)CC5)C[C@H]4/C=C\CCCCC[C@H](NC(=O)OC(C)(C)C)C(=O)N2C1)O3` [Example 8, tert-Butyl ((2′R,6′S,13a′S,14a′R,16a′S,Z)-9-methoxy-14a′-(((1-methylcyclopropyl)sulfonyl)carbamoyl)-5′,16′-dioxo-5-(trifluoromethyl)-3′,5′,6′,7′,8′,9′,10′,11′, 13a′,14′,14a′,15′,16′,16a′-tetradecahydro-1H,2H-spiro[[1,4]dioxino[2,3-c]quinoline-3,2′-cyclopropa[e]pyrrolo[1,2-a][1,4]diazacyclopentadecin]-6′-yl)carbamate] registered an IC50 of 0.011 nM.

With `COc1ccc2nc(C)c3c(c2c1)CC[C@]1(C[C@H]2C(=O)N[C@]4(C(=O)NS(=O)(=O)C5(C)CC5)C[C@H]4/C=C\CCCCC[C@H](NC(=O)OC(C)(C)C)C(=O)N2C1)O3` [Example 9, tert-Butyl [(2R,6S,12Z,13aS,14aR,16aS)-9′-methoxy-5′-methyl-14a-{[(1-methylcyclopropyl)sulfonyl]carbamoyl}-5,16-dioxo-1,1′,2′,5,6,7,8,9,10,11,13a,14,14a,15, 16,16a-hexadecahydrospiro[cyclopropa[e]pyrrolo[1,2-a][1,4]diazacyclopentadecine-2,3′-pyrano[2,3-c]quinolin]-6-yl]carbamate], under “K+ salt”, the IC50 came to 0.006 nM. Compound `COc1ccc2nc(C(F)F)c3c(c2n1)CC[C@]1(C[C@H]2C(=O)N[C@]4(C(=O)NS(=O)(=O)C5(C)CC5)C[C@H]4/C=C\CCCCC[C@H](NC(=O)OC(C)(C)C)C(=O)N2C1)O3` [Example 12, tert-Butyl ((2R,6S,13aS,14aR,16aS,Z)-6′-(difluoromethyl)-2′-methoxy-14a-(((1-methylcyclopropyl)sulfonyl)carbamoyl)-5,16-dioxo-3,5,6,7,8,9,9′,10,10′,11,13a,14,14a, 15,16,16a-hexadecahydro-1H-spiro[cyclopropa[e]pyrrolo[1,2-a][1,4]diazacyclopentadecine-2,8′-pyrano[2,3-c][1,5]naphthyridin]-6-yl)carbamate] showed an IC50 of 0.007 nM. Same read-out and setting: to `COc1ccc2nc(C(C)C)c3c(c2c1)[C@H](F)C[C@]1(C[C@H]2C(=O)N[C@]4(C(=O)NS(=O)(=O)C5(C)CC5)C[C@H]4/C=C\CCCCC[C@H](NC(=O)OC(C)(C)C)C(=O)N2C1)O3` [Example 32, tert-butyl ((1′R,2S,6S,13aS,14aR,16aS,Z)-1′-fluoro-5′-isopropyl-9′-methoxy-14a-(((1-methylcyclopropyl)sulfonyl)carbamoyl)-5,16-dioxo-1′,2′,3,5,6,7,8,9,10,11,13a,14, 14a,15,16,16a-hexadecahydro-1H-spiro[cyclopropa[e]pyrrolo[1,2-a][1,4]diazacyclopentadecine-2,3′-pyrano[2,3-c]quinolin]-6-yl)carbamate] belongs 0.024 nM; to `CC(C)(C)OC(=O)N[C@H]1CCCCC/C=C\[C@@H]2C[C@@]2(C(=O)NS(=O)(=O)C2(C)CC2)NC(=O)[C@@H]2C[C@]3(CCc4c(c(C(F)(F)F)nc5ccc(OCCN6CCCCC6)cc45)O3)CN2C1=O` [Example 67, tert-Butyl ((2R,6S,13aS,14aR,16aS,Z)-14a-(((1-methylcyclopropyl)sulfonyl)carbamoyl)-5,16-dioxo-9′(2-(piperidin-1-yl)ethoxy)-5′-(trifluoromethyl)-1′,2′,3,5,6,7,8,9,10,11,13a,14,14a,15,16,16a-hexadecahydro-1H-spiro[cyclopropa[e]pyrrolo[1,2-a][1,4]diazacyclopentadecine-2,3′-pyrano[2,3-c]quinolin]-6-yl)carbamate], 0.021 nM; to `Cc1nc2ccccc2c2c1O[C@]1(CC2)C[C@H]2C(=O)N[C@]3(C(=O)NS(=O)(=O)C4(C)CC4)C[C@H]3/C=C\CCCCC[C@H](NC(=O)OC3CCN(C)CC3)C(=O)N2C1` [Example 117, 1-methylpiperidin-4-yl [(2R,6S,12Z,13aS,14aR,16aS)-5′-methyl-14a-{[(1-methylcyclopropyl)sulfonyl]carbamoyl}-5,16-dioxo-1,1′,2′,5,6,7,8,9,10,11,13a,14,14a,15,16,16a-hexadecahydrospiro[cyclopropa[e]pyrrolo[1,2-a][1,4]diazacyclopentadecine-2,3′-pyrano[2,3-c]quinolin]-6-yl]carbamate], 0.056 nM. For the compound `COc1ccc2nc(C)c3c(c2c1)CC[C@]1(C[C@H]2C(=O)N[C@]4(C(=O)NS(=O)(=O)C5(C)CC5)C[C@H]4/C=C\CCCCC[C@H](NC(=O)OC4(C)CCC4)C(=O)N2C1)O3` [Example 186, 1-methylcyclobutyl [(2R,6S,12Z,13aS,14aR,16aS)-9′-methoxy-5′-methyl-14a-{[(1-methylcyclopropyl)sulfonyl]carbamoyl}-5,16-dioxo-1,1′,2′,5,6,7,8,9,10,11,13a,14,14a,15,16,16a-hexadecahydrospiro[cyclopropa[e]pyrrolo[1,2-a][1,4]diazacyclopentadecine-2,3′-pyrano[2,3-c]quinolin]-6-yl]carbamate], under “K+ salt”, the IC50 amounted to 0.009 nM. For the compound `Cc1nc2cc(F)c(F)cc2c2c1O[C@]1(CC2)C[C@H]2C(=O)N[C@]3(C(=O)NS(=O)(=O)C4(C)CC4)C[C@H]3/C=C\CCCCC[C@H](NC(=O)OC3CCCCC3)C(=O)N2C1` [Example 203, cyclohexyl [(2R,6S,12Z,13aS,14aR,16aS)-8′,9′-difluoro-5′-methyl-14a-{[(1-methylcyclopropyl)sulfonyl]carbamoyl}-5,16-dioxo-1,1′,2′,5,6,7,8,9,10,11,13a,14,14a,15,16,16a-hexadecahydrospiro[cyclopropa[e]pyrrolo[1,2-a][1,4]diazacyclopentadecine-2,3′-pyrano[2,3-c]quinolin]-6-yl]carbamate], the IC50 (K+ salt) worked out at 0.015 nM. On the same count and under the same terms, the same measure for `Cc1nc2cc(F)c(F)cc2c2c1O[C@]1(CC2)C[C@H]2C(=O)N[C@]3(C(=O)NS(=O)(=O)C4(C)CC4)C[C@H]3/C=C\CCCCC[C@H](NC(=O)OC3CCC3)C(=O)N2C1` [Example 204, cyclobutyl [(2R,6S,12Z,13aS,14aR,16aS)-8′,9′-difluoro-5′-methyl-14a-{[(1-methylcyclopropyl)sulfonyl]carbamoyl}-5,16-dioxo-1,1′,2′,5,6,7,8,9,10,11,13a,14,14a,15,16,16a-hexadecahydrospiro[cyclopropa[e]pyrrolo[1,2-a][1,4]diazacyclopentadecine-2,3′-pyrano[2,3-c]quinolin]-6-yl]carbamate]: 0.015 nM. `Cc1nc2ccc(OC(F)(F)F)cc2c2c1O[C@]1(CC2)C[C@H]2C(=O)N[C@]3(C(=O)NS(=O)(=O)C4(C)CC4)C[C@H]3/C=C\CCCCC[C@H](NC(=O)OC3(C)CCCC3)C(=O)N2C1` [Example 209, 1-methylcyclopentyl [(2R,6S,12Z,13aS,14aR,16aS)-5′-methyl-14a-{[(1-methylcyclopropyl)sulfonyl]carbamoyl}-5,16-dioxo-9′-(trifluoromethoxy)-1,1′,2′,5,6,7,8,9,10,11,13a,14,14a,15,16,16a-hexadecahydrospiro[cyclopropa[e]pyrrolo[1,2-a][1,4]diazacyclopentadecine-2,3′-pyrano[2,3-c]quinolin]-6-yl]carbamate] showed an IC50 of 0.03 nM. `COc1ccc2nc(C)c3c(c2c1)CC[C@]1(C[C@H]2C(=O)N[C@]4(C(=O)NS(=O)(=O)C5(C)CC5)C[C@H]4/C=C\CCCCC[C@H](NC(=O)OC4(C5CC5)CC4)C(=O)N2C1)O3` [Example 212, 1,1′-bi(cyclopropyl)-1-yl [(2R,6S,12Z,13aS,14aR,16aS)-9′-methoxy-5′-methyl-14a-{[(1-methylcyclopropyl)sulfonyl]carbamoyl}-5,16-dioxo-1,1′,2′,5,6,7,8,9,10,11,13a,14,14a,15,16,16a-hexadecahydrospiro[cyclopropa[e]pyrrolo[1,2-a][1,4]diazcyclopentadecine-2,3′-pyrano[2,3-c]quinolin]-6-yl]carbamate]: the IC50 (K+ salt) was 0.003 nM.

As to `COc1ccc2nc(C)c3c(c2c1)CC[C@]1(C[C@H]2C(=O)N[C@]4(C(=O)NS(=O)(=O)C5(C)CC5)C[C@H]4/C=C\CCCCC[C@H](NC(=O)OCC4CCC4)C(=O)N2C1)O3` [Example 213, cyclobutylmethyl [(2R,6S,12Z,13aS,14aR,16aS)-9′-methoxy-5′-methyl-14a-{[(1-methylcyclopropyl)sulfonyl]carbamoyl}-5,16-dioxo-1,1′,2′,5,6,7,8,9,10,11,13a,14,14a,15,16,16a-hexadecahydrospiro[cyclopropa[e]pyrrolo[1,2-a][1,4]diazacyclopentadecine-2,3′-pyrano[2,3-c]quinolin]-6-yl]carbamate], under “K+ salt”, the IC50 is 0.004 nM.
